Data as given in PubChem BioAssay (NCI).
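Tested at 5 concentrations; 48 h exposure; 96-well plates; endpoints linearly interpolated, else capped at highest concentration. TGI denotes the concentration required for complete inhibition of growth.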

How the values were obtained:
Assay in all cases: NCI tumour cell line growth inhibition, 48 h
SF-268 CNS = tested on: SF-268 CNS
NCI-H226 lung = tested on: NCI-H226 lung
HOP-92 NSCLC = tested on: HOP-92 NSCLC
SR leukemia = tested on: SR leukemia
SK-MEL-5 melanoma = tested on: SK-MEL-5 melanoma
OVCAR-3 ovarian = tested on: OVCAR-3 ovarian
PC-3 prostate = tested on: PC-3 prostate
LOX IMVI melanoma = tested on: LOX IMVI melanoma
IGROV1 ovarian = tested on: IGROV1 ovarian
MOLT-4 leukemia = tested on: MOLT-4 leukemia
A498 renal = tested on: A498 renal
MCF7 breast = tested on: MCF7 breast
CCRF-CEM leukemia = tested on: CCRF-CEM leukemia
MDA-MB-435 = tested on: MDA-MB-435
HOP-62 NSCLC = tested on: HOP-62 NSCLC
ACHN renal = tested on: ACHN renal
786-0 renal = tested on: 786-0 renal
K-562 leukemia = tested on: K-562 leukemia
NCI-H23 lung = tested on: NCI-H23 lung
COLO 205 colon = tested on: COLO 205 colon
SK-MEL-28 melanoma = tested on: SK-MEL-28 melanoma
SF-295 CNS = tested on: SF-295 CNS
KM12 colon = tested on: KM12 colon
SK-OV-3 ovarian = tested on: SK-OV-3 ovarian
SNB-19 CNS = tested on: SNB-19 CNS
HT29 colon = tested on: HT29 colon
OVCAR-8 ovarian = tested on: OVCAR-8 ovarian
MALME-3M melanoma = tested on: MALME-3M melanoma
EKVX NSCLC = tested on: EKVX NSCLC
NCI-H522 lung = tested on: NCI-H522 lung
BT-549 breast = tested on: BT-549 breast
SN12C renal = tested on: SN12C renal
HCC-2998 colon = tested on: HCC-2998 colon
MDA-MB-231 breast = tested on: MDA-MB-231 breast
A549 NSCLC = tested on: A549 NSCLC
SK-MEL-2 melanoma = tested on: SK-MEL-2 melanoma
HL-60(TB) leukemia = tested on: HL-60(TB) leukemia
HS 578T breast = tested on: HS 578T breast
U251 CNS = tested on: U251 CNS
CAKI-1 renal = tested on: CAKI-1 renal
SF-539 CNS = tested on: SF-539 CNS
DU-145 prostate = tested on: DU-145 prostate
UACC-62 melanoma = tested on: UACC-62 melanoma
TK-10 renal = tested on: TK-10 renal
OVCAR-5 ovarian = tested on: OVCAR-5 ovarian
M14 melanoma = tested on: M14 melanoma
NCI/ADR-RES ovarian = tested on: NCI/ADR-RES ovarian
UO-31 renal = tested on: UO-31 renal
T-47D breast = tested on: T-47D breast
MDA-N = tested on: MDA-N
HCT-116 colon = tested on: HCT-116 colon
OVCAR-4 ovarian = tested on: OVCAR-4 ovarian
HCT-15 colon = tested on: HCT-15 colon
NCI-H460 lung = tested on: NCI-H460 lung
UACC-257 melanoma = tested on: UACC-257 melanoma
SW-620 colon = tested on: SW-620 colon
RPMI-8226 leukemia = tested on: RPMI-8226 leukemia
SNB-75 CNS = tested on: SNB-75 CNS
RXF 393 renal = tested on: RXF 393 renal

Compound `COC(=O)/C=C/c1ccc2c(c1)[C@H](C(=O)OC)[C@@H](c1ccc(O)cc1)O2` has a TGI (SF-268 CNS) of 83.8 µM, a TGI (NCI-H226 lung) of over 100 µM and a TGI (HOP-92 NSCLC) of over 100 µM. It also gave a TGI (SR leukemia) of 45.8 µM, a TGI (SK-MEL-5 melanoma) of 28.1 µM and a TGI (OVCAR-3 ovarian) of 28.2 µM. The TGI (PC-3 prostate) was over 100 µM, the TGI (LOX IMVI melanoma) was 89.4 µM and the TGI (IGROV1 ovarian) was over 100 µM. The TGI (MOLT-4 leukemia) was 96.5 µM, the TGI (A498 renal) was over 100 µM and the TGI (MCF7 breast) was 48.6 µM. The TGI (CCRF-CEM leukemia) was 78 µM, the TGI (MDA-MB-435) was 16.2 µM and the TGI (HOP-62 NSCLC) was over 100 µM. For the same compound, the TGI (ACHN renal) was over 100 µM, the TGI (786-0 renal) was over 100 µM and the TGI (K-562 leukemia) was over 100 µM. It also gave a TGI (NCI-H23 lung) of over 100 µM, a TGI (COLO 205 colon) of 89.4 µM and a TGI (SK-MEL-28 melanoma) of over 100 µM. It also gave a TGI (SF-295 CNS) of over 100 µM, a TGI (KM12 colon) of 88.1 µM and a TGI (SK-OV-3 ovarian) of over 100 µM. The TGI (SNB-19 CNS) was over 100 µM, the TGI (HT29 colon) was over 100 µM and the TGI (OVCAR-8 ovarian) was over 100 µM. It also gave a TGI (MALME-3M melanoma) of 80.6 µM, a TGI (EKVX NSCLC) of over 100 µM and a TGI (NCI-H522 lung) of 74.2 µM. It also gave a TGI (BT-549 breast) of 46.4 µM, a TGI (SN12C renal) of over 100 µM and a TGI (HCC-2998 colon) of 59.4 µM. For the same compound, the TGI (MDA-MB-231 breast) was over 100 µM, the TGI (A549 NSCLC) was over 100 µM and the TGI (SK-MEL-2 melanoma) was 31.2 µM. The TGI (HL-60(TB) leukemia) was 67.6 µM, the TGI (HS 578T breast) was 96.4 µM and the TGI (U251 CNS) was over 100 µM. The TGI (CAKI-1 renal) was over 100 µM, the TGI (SF-539 CNS) was over 100 µM and the TGI (DU-145 prostate) was over 100 µM. It also gave a TGI (UACC-62 melanoma) of over 100 µM, a TGI (TK-10 renal) of over 100 µM and a TGI (OVCAR-5 ovarian) of over 100 µM. The TGI (M14 melanoma) was 42.7 µM, the TGI (NCI/ADR-RES ovarian) was over 100 µM and the TGI (UO-31 renal) was 70 µM. The TGI (T-47D breast) was over 100 µM, the TGI (MDA-N) was 95.7 µM and the TGI (HCT-116 colon) was over 100 µM. For the same compound, the TGI (OVCAR-4 ovarian) was over 100 µM, the TGI (HCT-15 colon) was 47.3 µM and the TGI (NCI-H460 lung) was over 100 µM. The TGI (UACC-257 melanoma) was over 100 µM and the TGI (SW-620 colon) was over 100 µM.
`N#CCCN(CCCN(C(=O)Nc1ccc(NC(=O)N(CCCN(CCC#N)C(N)=O)c2ccccc2)cc1)c1ccccc1)C(N)=O` showed a TGI (SF-268 CNS) of over 100 µM, a TGI (NCI-H226 lung) of over 100 µM and a TGI (HOP-92 NSCLC) of over 100 µM. For the same compound, the TGI (SR leukemia) was over 100 µM, the TGI (SK-MEL-5 melanoma) was over 100 µM and the TGI (OVCAR-3 ovarian) was over 100 µM. The TGI (PC-3 prostate) was over 100 µM, the TGI (LOX IMVI melanoma) was over 100 µM and the TGI (MOLT-4 leukemia) was over 100 µM. It also gave a TGI (A498 renal) of over 100 µM, a TGI (MCF7 breast) of over 100 µM and a TGI (CCRF-CEM leukemia) of over 100 µM. For the same compound, the TGI (MDA-MB-435) was over 100 µM, the TGI (HOP-62 NSCLC) was over 100 µM and the TGI (ACHN renal) was over 100 µM. It also gave a TGI (786-0 renal) of over 100 µM, a TGI (RPMI-8226 leukemia) of over 100 µM and a TGI (SNB-75 CNS) of over 100 µM. It also gave a TGI (K-562 leukemia) of over 100 µM, a TGI (NCI-H23 lung) of over 100 µM and a TGI (COLO 205 colon) of over 100 µM. It also gave a TGI (SK-MEL-28 melanoma) of over 100 µM, a TGI (SF-295 CNS) of over 100 µM and a TGI (KM12 colon) of over 100 µM. It also gave a TGI (SK-OV-3 ovarian) of over 100 µM, a TGI (SNB-19 CNS) of over 100 µM and a TGI (HT29 colon) of over 100 µM. It also gave a TGI (OVCAR-8 ovarian) of over 100 µM, a TGI (RXF 393 renal) of over 100 µM and a TGI (MALME-3M melanoma) of over 100 µM. For the same compound, the TGI (EKVX NSCLC) was over 100 µM, the TGI (NCI-H522 lung) was over 100 µM and the TGI (BT-549 breast) was over 100 µM. For the same compound, the TGI (HCC-2998 colon) was over 100 µM, the TGI (MDA-MB-231 breast) was over 100 µM and the TGI (A549 NSCLC) was over 100 µM. It also gave a TGI (SK-MEL-2 melanoma) of over 100 µM, a TGI (HL-60(TB) leukemia) of over 100 µM and a TGI (HS 578T breast) of over 100 µM. The TGI (U251 CNS) was over 100 µM, the TGI (CAKI-1 renal) was over 100 µM and the TGI (SF-539 CNS) was over 100 µM. It also gave a TGI (DU-145 prostate) of over 100 µM, a TGI (UACC-62 melanoma) of over 100 µM and a TGI (TK-10 renal) of over 100 µM. The TGI (OVCAR-5 ovarian) was over 100 µM, the TGI (M14 melanoma) was over 100 µM and the TGI (NCI/ADR-RES ovarian) was over 100 µM. The TGI (UO-31 renal) was over 100 µM, the TGI (T-47D breast) was over 100 µM and the TGI (MDA-N) was over 100 µM. It also gave a TGI (HCT-116 colon) of over 100 µM, a TGI (OVCAR-4 ovarian) of over 100 µM and a TGI (HCT-15 colon) of over 100 µM. For the same compound, the TGI (NCI-H460 lung) was over 100 µM, the TGI (UACC-257 melanoma) was over 100 µM and the TGI (SW-620 colon) was over 100 µM.
